# Experimental data reported in patent publication US4353917A, “Amino derivatives of 2-methyl-5-(2-hydroxystyryl)-1,3,4-thiadiazole, their preparation, and formulations containing these compounds” (BASF Aktiengesellschaft, priority 1979, dated 1982).
# Legend:
# cardiac β1 -receptors = target: T1, cardiac β1 -receptors (Felis catus, UniProt Q9TST6); experiment: β-Sympatholytic action: inhibition of isoproterenol-induced tachycardia in narcotized cats; format: in vivo; details: for β1 -Sympatholytic action R.A. (relative activity): Propranolol = 1.00, cats, intravenous; for ED50: cat, cats under hexobarbital narcosis, intravenous administration, read-out: β1 -Sympatholytic action ED 50%: dose which inhibits the isoproterenol-induced tachycardia by 50%; for blocking dose for cardiac β1 -receptors: times lower than that of propranolol: versus comparative substance propranolol
# T1 construct: pulse rate of narcotized cats (weighing 2-4 kg); from tissue; host or cells: heart of the living cat (in vivo, hexobarbital narcosis)
# T1 sequence (Q9TST6 whole entry): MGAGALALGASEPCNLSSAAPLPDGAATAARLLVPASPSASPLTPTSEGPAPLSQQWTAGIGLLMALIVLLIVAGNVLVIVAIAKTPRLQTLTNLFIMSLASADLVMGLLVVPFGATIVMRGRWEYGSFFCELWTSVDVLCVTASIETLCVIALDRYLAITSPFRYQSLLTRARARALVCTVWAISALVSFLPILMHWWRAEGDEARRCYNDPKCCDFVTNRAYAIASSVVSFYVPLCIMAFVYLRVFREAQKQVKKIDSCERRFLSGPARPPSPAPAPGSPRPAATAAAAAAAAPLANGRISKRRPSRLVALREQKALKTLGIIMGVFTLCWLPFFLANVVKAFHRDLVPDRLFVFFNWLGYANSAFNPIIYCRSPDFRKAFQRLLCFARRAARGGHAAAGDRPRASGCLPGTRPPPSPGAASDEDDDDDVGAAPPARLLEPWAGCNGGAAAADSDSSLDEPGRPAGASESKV
# Protocol: The β-sympatholytic action was tested on cats. […] The following methods were employed in the tests:
# (§1) Isoproterenol (1 μg/kg, administered intravenously) causes increases, averaging 40%, in the pulse rate of narcotized cats (weighing 2-4 kg). β-Sympatholytic agents inhibit such tachycardia. Isoproterenol was administered before, and 10 and 40 minutes after, the intravenous administration of the test substances. Linear relationships exist between the logarithms of the administered doses (mg/kg) of the test substances and the inhibition of isoproterenol-induced tachycardia (%).
# ^(1) Inhibition of isoproterenolinduced tachycardia. Cats under
# hexobarbital narcosis. Intravenous administration.
# ^(2) Dose (mg/kg), which inhibits the isoproterenolinduced tachycardi
# ^(3) Relative activity.
# NMRI mice = experiment: in vivo; details: mouse
# in vivo = details: mouse; for selectivity ratio: footnote (5) formula is a drawing, read-out: Therapeutic range; for LD50: ip, mice, intraperitoneal administration, read-out: Acute toxicity LD 50
# [1] = test system: pulse rate of narcotized cats; experiment: Increase in pulse rate of narcotized cats by isoproterenol; format: in vivo; details: 1 μg/kg, intravenously; narcotized cats (2-4 kg); average
# Protocol: as §1, with “(%). From these relationships, the doses (ED 50%) which inhibit the isoproterenol-induced tachycardia by 50% are determined.” for “(%).”
SMILES,β1 -Sympatholytic action R.A. (relative activity) (cardiac β1 -receptors),ED50 (cardiac β1 -receptors) [mg/kg],blocking dose for cardiac β1 -receptors: times lower than that of propranolol (cardiac β1 -receptors) [times],therapeutic range: times greater than for propranolol (NMRI mice) [times],selectivity ratio (in vivo),LD50 (in vivo) [mg/kg],increase in the pulse rate [1] [%]
Cc1nnc(C=Cc2ccccc2OCC(O)CNC(C)CCc2ccc(O)cc2)s1 (stereo not shown) [Example 4],6.71,0.021,6.7,2.6,1990,41.7,
COc1ccc(CCNCC(O)COc2ccccc2C=Cc2nnc(C)s2)cc1OC (stereo not shown) [Example 2],5.64,0.025,5.6,4.2,3250,81.3,
CC(C)NCC(O)c1ccc(O)c(O)c1 (stereo not shown) [Isoproterenol],,,,,,,~40
